Assay results as given in patent publication US8952150B2, “Prostaglandin transporter inhibitors and uses thereof” (Albert Einstein College of Medicine of Yeshiva University, priority 2009, dated 2015).

Molecular target: rat PGT (Rattus norvegicus (Rat), UniProt Q00910)
Experiment: [3H]PGE2 uptake inhibition in MDCK cells stably transfected with rat PGT (percent inhibition and IC50)
Assay type: cell-based
Settings: for Inh (% of Ctl) 0.1 μM: 0.1 μM compound; for Inh (% of Ctl) 0.1 μM / Inh (% of Ctl) 0.5 μM / Inh (% of Ctl) 1 μM / Inh (% of Ctl) 10 μM / Inh (% of Ctl) 5 μM / Inh (% of Ctl) 2.5 μM: inhibition of [3H]PGE2 uptake; for Inh (% of Ctl) 0.5 μM: 0.5 μM compound; for Inh (% of Ctl) 1 μM: 1 μM compound; for Inh (% of Ctl) 10 μM: 10 μM compound; for Inh (% of Ctl) 5 μM: 5 μM compound; for IC50: [3H]PGE2 uptake, MDCK cells stably transfected with rat PGT; for Inh (% of Ctl) 2.5 μM: 2.5 μM compound
Protocol: MDCK cells stably transfected with rat PGT (Endo et al., 2002) were seeded at 15-20% confluence on 24-well plates. The day on which the cells were seeded was considered day 1. PGE2 uptake experiments were conducted on day 4. All of the PGE2 uptake experiments were conducted at room temperature. On day 4, cells were washed twice with Waymouth buffer (135 mM NaCl, 13 mM H-Hepes, 13 mM Na-Hepes, 2.5 mM CaCl2, 1.2 mM MgCl2, 0.8 mM MgSO4, 5 mM KCl, and 28 mM D-glucose). Then 200 μL of Waymouth buffer containing [^3H]PGE2 (purchased from Perkin Elmer) was added to each well. At the designed time, the uptake of [^3H]PGE2 was stopped by aspiration of uptake buffer; this was followed by immediate washing twice with 500 μL of chilled Waymouth buffer. Cells were then lysed with 100 μL lysis buffer containing 0.25% SDS and 0.05 N NaOH. 1.5 mL of scintillation solution was added to each well, and intracellular [^3H]PGE2 was counted by MicroBeta Counter.
For preliminary testing of the compounds, 20 μL of Waymouth buffer containing the compound was added to each well; this was immediately followed by the addition of 180 μL of Waymouth buffer containing [^3H]PGE2. In each well, the total volume of uptake medium was 200 μL. Organic compounds were first dissolved in EtOH and then diluted in Waymouth buffer. The percent inhibition of [^3H]PGE2 uptake by compounds was calculated as [(uptakevehicle−uptakeinhibitor)÷(uptakevehicle)]×100.
IC50 was calculated by fitting an equation of y=m1−m1*(m0/(m2+m0)).

| SMILES | Inh (% of Ctl) 0.1 μM | Inh (% of Ctl) 0.5 μM | Inh (% of Ctl) 1 μM | Inh (% of Ctl) 10 μM | Inh (% of Ctl) 5 μM | IC50 [µM] | Inh (% of Ctl) 2.5 μM |
| --- | --- | --- | --- | --- | --- | --- | --- |
| O=C(O)c1cccc(Nc2nc(NCCOCCOCCNC(=O)c3ccccc3)nc(Nc3ccc(C(=O)NCc4ccc(F)cc4)cc3)n2)c1 [compound 150] | 4.2 % of Ctl | 14.3 % of Ctl | 23.9 % of Ctl | – | – | – | – |
| O=C(NCc1ccccc1)c1ccc(Nc2nc(NCCOCCNCc3ccccc3)nc(Nc3ccc(O)cc3)n2)cc1 [compound 141] | 12.7 % of Ctl | 22.0 % of Ctl | 43.5 % of Ctl | – | – | – | – |
| O=C(NCCOCCOCCNc1nc(Nc2ccccc2)nc(Nc2ccc(O)cc2)n1)c1cccs1 [compound 39] | – | – | 42.9 % of Ctl | 86.2 % of Ctl | – | – | – |
| O=C(NCCOCCOCCNc1nc(Nc2ccccc2)nc(Nc2ccc3cn[nH]c3c2)n1)c1ccccc1 [compound 53] | – | – | 65.2 % of Ctl | 86.4 % of Ctl | 83.4 % of Ctl | 4.04 | – |
| O=C(NCCOCCOCCNc1nc(Nc2ccc(O)cc2)nc(NC2CCCCC2)n1)c1ccccc1 [compound 27] | – | 28.2 % of Ctl | – | – | 53.8 % of Ctl | – | – |
| O=C(NCCOCCOCCNc1nc(Nc2ccc(O)cc2)nc(Nc2ccc3c(c2)C(=O)NC3=O)n1)c1ccccc1 [compound 77] | – | 1.8 % of Ctl | – | – | 23.2 % of Ctl | – | 4.3 % of Ctl |
| O=C(NCCOCCOCCNc1nc(Nc2ccccc2)nc(Nc2ccc(-c3nnn[nH]3)cc2)n1)c1ccccc1 [compound 54] | – | – | 33.7 % of Ctl | 52.2 % of Ctl | – | – | – |
| CCCCCCNC(=O)c1ccc(Nc2nc(NCCOCCNC(=O)c3ccccc3)nc(Nc3ccc(O)cc3)n2)cc1 [compound 119] | 57.2 % of Ctl | 81.4 % of Ctl | – | – | – | – | – |
| O=C(NCc1ccc(F)cc1)c1ccc(Nc2nc(Nc3ccc(O)cc3)nc(Nc3ccc(CNCc4ccccc4)cc3)n2)cc1 [compound 149] | 3.8 % of Ctl | 9.1 % of Ctl | 17.6 % of Ctl | – | – | – | – |
| O=C(NCCOCCOCCNc1nc(Nc2ccc(O)cc2)nc(Nc2ccc(C(=O)Nc3ccccc3)cc2)n1)c1ccccc1 [compound 103] | – | 38.3 % of Ctl | – | – | 83.7 % of Ctl | – | 62.2 % of Ctl |
| O=C(NCCOCCOCCNc1nc(Nc2ccc(O)cc2)nc(Nc2ccc(C(=O)NCc3ccc(Cl)c(Cl)c3)cc2)n1)c1ccccc1 [compound 104] | 46.6 % of Ctl | 61.6 % of Ctl | – | – | 91.6 % of Ctl | – | 87.8 % of Ctl |
| O=C(NCCOCCOCCNc1nc(Nc2ccccc2)nc(Nc2ccc3[nH]nnc3c2)n1)c1ccccc1 [compound 95] | – | – | 1.9 % of Ctl | 50.4 % of Ctl | 23.4 % of Ctl | – | – |
| O=C(NCCOCCOCCNc1nc(Nc2ccc(O)cc2)nc(Nc2ccc(C(=O)NCCc3ccccc3)cc2)n1)c1ccccc1 [compound 111] | 52.2 % of Ctl | 59.1 % of Ctl | – | – | 93.2 % of Ctl | – | 81.5 % of Ctl |
| NC(=O)c1ccc(Nc2nc(NCCOCCOCCNC(=O)c3ccccc3)nc(Nc3ccc(O)cc3)n2)cc1 [compound 20] | – | 9.6 % of Ctl | – | – | 14.4 % of Ctl | – | – |
| COC(=O)CCCCCCNC(=O)c1ccc(Nc2nc(NCCOCCOCCNC(=O)c3ccccc3)nc(Nc3ccc(O)cc3)n2)cc1 [compound 43] | – | – | 34.8 % of Ctl | 84.1 % of Ctl | – | 1.3 | – |
| O=C(NCCOCCNc1nc(Nc2ccc(O)cc2)nc(Nc2ccc(C(=O)NCc3ccc(Cl)cc3)cc2)n1)c1ccccc1 [compound 98] | – | 6.7 % of Ctl | – | – | 75.1 % of Ctl | – | 24.9 % of Ctl |
